Measurements: PMC10746543, “Design principles for cyclin K molecular glue degraders” (Nature Chemical Biology, 2023)
Where “and” joins values, the source holds several entries; their conditions need not be identical. Equal entries are not always repeated. Where two headings read alike, the source gives them in different places.

Legend:
[1] = target: T1, CDK2–cyclin A (Homo sapiens, UniProt P24941); assay: Lanthascreen kinase binding assay, CDK2
T1 construct: purchased Thermo Fisher
Experimental: Lanthascreen experiments were performed using commercially available reagents (Thermo Fisher) and according to the manufacturer’s instructions.

[2] = target: T2, CDK12 (Homo sapiens, UniProt Q16531+Q9NYV4); assay: Label-free quantitative mass spectrometry in MDA-MB-231 cells, CDK12; assay type: cell-based; conditions: for CDK12 peptide count: label-free quantitative MS, replicate values; for CDK12 peptide count (DMSO-normalised): normalised to DMSO = 1, replicate values
T2 construct: endogenous in cells; host or cells: MDA-MB-231
T2 sequence (Q9NYV4 whole entry): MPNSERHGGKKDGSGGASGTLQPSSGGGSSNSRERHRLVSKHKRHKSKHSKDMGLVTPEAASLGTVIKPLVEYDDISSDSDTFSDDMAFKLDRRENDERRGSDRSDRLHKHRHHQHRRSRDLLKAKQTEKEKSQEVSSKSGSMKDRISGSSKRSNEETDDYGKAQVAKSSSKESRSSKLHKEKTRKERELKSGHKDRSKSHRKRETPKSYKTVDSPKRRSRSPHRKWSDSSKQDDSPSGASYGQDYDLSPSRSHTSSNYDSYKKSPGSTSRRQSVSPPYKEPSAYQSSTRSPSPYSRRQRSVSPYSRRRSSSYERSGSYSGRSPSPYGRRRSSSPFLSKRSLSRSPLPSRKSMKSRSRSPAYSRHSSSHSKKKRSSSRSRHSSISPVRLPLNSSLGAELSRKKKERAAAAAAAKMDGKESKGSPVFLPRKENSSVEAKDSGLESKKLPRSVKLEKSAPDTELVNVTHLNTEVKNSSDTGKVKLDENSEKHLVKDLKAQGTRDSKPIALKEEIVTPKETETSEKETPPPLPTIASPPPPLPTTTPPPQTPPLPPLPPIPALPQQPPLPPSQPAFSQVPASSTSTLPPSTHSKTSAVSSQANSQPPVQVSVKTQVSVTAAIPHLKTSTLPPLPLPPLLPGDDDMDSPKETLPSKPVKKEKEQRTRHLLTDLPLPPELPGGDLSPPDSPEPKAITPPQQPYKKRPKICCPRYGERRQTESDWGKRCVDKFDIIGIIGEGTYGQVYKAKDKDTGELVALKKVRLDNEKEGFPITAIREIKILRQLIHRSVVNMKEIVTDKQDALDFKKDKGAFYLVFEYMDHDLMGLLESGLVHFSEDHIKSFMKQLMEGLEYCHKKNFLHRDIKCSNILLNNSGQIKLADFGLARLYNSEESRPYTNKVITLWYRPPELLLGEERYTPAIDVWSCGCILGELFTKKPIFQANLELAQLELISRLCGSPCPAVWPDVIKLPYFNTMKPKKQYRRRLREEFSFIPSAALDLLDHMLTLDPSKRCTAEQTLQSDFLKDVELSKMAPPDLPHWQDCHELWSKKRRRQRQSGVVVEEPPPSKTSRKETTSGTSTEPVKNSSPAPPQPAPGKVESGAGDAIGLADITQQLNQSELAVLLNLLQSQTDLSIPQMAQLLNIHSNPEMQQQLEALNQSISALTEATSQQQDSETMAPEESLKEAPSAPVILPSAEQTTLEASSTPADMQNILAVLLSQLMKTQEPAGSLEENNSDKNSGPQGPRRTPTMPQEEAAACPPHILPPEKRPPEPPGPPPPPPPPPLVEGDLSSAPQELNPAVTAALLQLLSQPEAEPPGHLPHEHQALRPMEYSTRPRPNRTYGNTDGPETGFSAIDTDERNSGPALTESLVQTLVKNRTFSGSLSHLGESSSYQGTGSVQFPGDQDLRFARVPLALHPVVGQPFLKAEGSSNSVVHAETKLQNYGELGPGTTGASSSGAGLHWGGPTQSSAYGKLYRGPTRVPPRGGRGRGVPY
T2 sequence (O75909 whole entry partner): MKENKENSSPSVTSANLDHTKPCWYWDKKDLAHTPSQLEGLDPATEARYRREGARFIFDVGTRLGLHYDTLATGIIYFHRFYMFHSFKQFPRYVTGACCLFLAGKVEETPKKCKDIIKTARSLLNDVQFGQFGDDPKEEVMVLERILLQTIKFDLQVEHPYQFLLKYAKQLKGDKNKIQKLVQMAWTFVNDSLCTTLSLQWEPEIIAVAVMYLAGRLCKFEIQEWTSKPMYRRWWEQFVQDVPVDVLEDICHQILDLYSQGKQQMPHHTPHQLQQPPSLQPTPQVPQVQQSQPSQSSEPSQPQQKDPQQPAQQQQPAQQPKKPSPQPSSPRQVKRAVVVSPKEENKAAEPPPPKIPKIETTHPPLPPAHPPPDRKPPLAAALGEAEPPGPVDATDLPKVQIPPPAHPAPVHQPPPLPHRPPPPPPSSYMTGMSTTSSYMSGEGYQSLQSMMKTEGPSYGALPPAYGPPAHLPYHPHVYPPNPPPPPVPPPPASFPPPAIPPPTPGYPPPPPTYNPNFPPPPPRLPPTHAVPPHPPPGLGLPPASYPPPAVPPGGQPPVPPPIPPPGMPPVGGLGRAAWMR
T2 sequence (Q16531 2-1140 limits assumed): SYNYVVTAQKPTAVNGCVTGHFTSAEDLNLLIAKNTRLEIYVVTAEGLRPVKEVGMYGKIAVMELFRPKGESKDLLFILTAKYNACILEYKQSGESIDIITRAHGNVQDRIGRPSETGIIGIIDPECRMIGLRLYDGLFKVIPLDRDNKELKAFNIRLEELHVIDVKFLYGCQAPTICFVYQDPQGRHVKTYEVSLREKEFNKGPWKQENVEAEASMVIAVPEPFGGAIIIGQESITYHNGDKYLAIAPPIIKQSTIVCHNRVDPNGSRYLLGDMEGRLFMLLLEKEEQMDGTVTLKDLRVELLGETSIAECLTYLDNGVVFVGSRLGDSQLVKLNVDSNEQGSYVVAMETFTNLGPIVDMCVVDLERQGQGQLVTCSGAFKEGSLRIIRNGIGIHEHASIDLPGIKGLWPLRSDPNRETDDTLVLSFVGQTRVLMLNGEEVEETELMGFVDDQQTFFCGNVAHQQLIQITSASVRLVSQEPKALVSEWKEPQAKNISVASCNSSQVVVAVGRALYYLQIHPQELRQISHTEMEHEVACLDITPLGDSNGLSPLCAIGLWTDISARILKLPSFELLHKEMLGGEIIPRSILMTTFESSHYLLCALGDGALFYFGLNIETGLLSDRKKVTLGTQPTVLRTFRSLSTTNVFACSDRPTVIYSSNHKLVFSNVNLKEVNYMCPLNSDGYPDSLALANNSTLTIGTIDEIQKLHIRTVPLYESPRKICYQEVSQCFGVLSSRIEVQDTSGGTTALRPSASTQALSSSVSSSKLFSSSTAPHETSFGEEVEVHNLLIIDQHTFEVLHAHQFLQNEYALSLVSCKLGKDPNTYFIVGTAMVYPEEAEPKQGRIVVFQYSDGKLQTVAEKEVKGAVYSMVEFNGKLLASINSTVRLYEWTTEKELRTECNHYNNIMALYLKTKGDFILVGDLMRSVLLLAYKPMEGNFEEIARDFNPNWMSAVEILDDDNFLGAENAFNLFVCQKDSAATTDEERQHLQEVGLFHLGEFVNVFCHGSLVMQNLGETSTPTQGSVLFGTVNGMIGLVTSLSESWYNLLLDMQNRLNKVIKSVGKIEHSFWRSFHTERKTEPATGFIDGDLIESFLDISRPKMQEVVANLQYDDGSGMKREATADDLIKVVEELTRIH
Experimental: MDA-MB-231 cells were treated with DMSO or a cyclin K degrader compound at 1 µM for 5 h. Cells were collected by centrifugation and washed with phosphate-buffered saline before snap freezing in liquid nitrogen. Cells were lysed by addition of lysis buffer (8 M urea, 50 mM NaCl, 50 mM 4-(2-hydroxyethyl)-1-piperazineethanesulfonic acid (EPPS) pH 8.5, and protease and phosphatase inhibitors) and homogenization by bead beating (BioSpec) for three repeats of 30 s at 2,400 rpm. Bradford assay was used to determine the final protein concentration in the clarified cell lysate. Then 50 µg of protein for each sample was reduced, alkylated and precipitated using methanol/chloroform as previously described, and the resulting washed precipitated protein was allowed to air dry. Precipitated protein was resuspended in 4 M urea, 50 mM HEPES pH 7.4, followed by dilution to 1 M urea with the addition of 200 mM EPPS, pH 8. Proteins were first digested with LysC (1:50; enzyme:protein) for 12 h at room temperature. The LysC digestion was diluted to 0.5 M urea with 200 mM EPPS pH 8 followed by digestion with trypsin (1:50; enzyme:protein) for 6 h at 37 °C. Sample digests were acidified with formic acid to a pH of 2–3 before desalting using C18 solid phase extraction plates (SOLA, Thermo Fisher Scientific). Desalted peptides were dried in a vacuum-centrifuged and reconstituted in 0.1% formic acid for liquid chromatography–mass spectrometry analysis.
Data were collected using a TimsTOF Pro2 (Bruker Daltonics) coupled to a nanoElute LC pump (Bruker Daltonics) via a CaptiveSpray nano-electrospray source. Peptides were separated on a reversed-phase C18 column (25 cm × 75 µm inner diameter, […], IonOpticks) containing an integrated captive spray emitter. Peptides were separated using a 50 min gradient of 2–30% buffer B (acetonitrile in 0.1% formic acid) with a flow rate of 250 nl min^−1 and column temperature maintained at 50 °C.
Data-dependent acquisition (DDA) was performed in Parallel Accumulation-Serial Fragmentation (PASEF) mode to determine effective ion mobility windows for downstream diaPASEF data collection. The ddaPASEF parameters included: 100% duty cycle using accumulation and ramp times of 50 ms each, one Trapped Ion Mobility Spectrometry(TIMS)-MS scan and ten PASEF ramps per acquisition cycle. The TIMS-MS survey scan was acquired between 100 m/z and 1,700 m/z and 1/K0 of 0.7–1.3 V s cm^−2. Precursors with one to five charges were selected, and those that reached an intensity threshold of 20,000 arbitrary units were actively excluded for 0.4 min. The quadrupole isolation width was set to 2 m/z for m/z < 700 and 3 m/z for m/z > 800, with the m/z between 700 m/z and 800 m/z being interpolated linearly. […] To perform diaPASEF, the precursor distribution in the DDA m/z-ion mobility plane was used to design an acquisition scheme for data-independent acquisition (DIA) data collection that included two windows in each 50 ms diaPASEF scan. Data were acquired using 16 of these 25 Da precursor double window scans (creating 32 windows) that covered the diagonal scan line for doubly and triply charged precursors, with singly charged precursors able to be excluded by their position in the m/z-ion mobility plane. These precursor isolation windows were defined between 400 m/z and 1,200 m/z and 1/K0 of 0.7–1.3 V s cm^−2.
DirectDIA mode includes first extracting the DIA data into a collection of MS2 spectra which are searched using Spectronaut’s Pulsar search engine. The search results are then used to generate a spectral library which is then employed for the targeted analysis of the DIA data. MS/MS spectra were searched against a Swissprot human database (January 2021). Database search criteria largely followed the default settings for directDIA including: tryptic with two missed cleavages, fixed carbomidomethylation of cysteine, and variable oxidation of methionine and acetylation of protein N-termini and precursor Q-value (FDR) cut-off of 0.01. […]

[3] = Compound 0.038147 nM, raw replicates, experiment r13-r23
[4] = Compound 0.152588 nM, raw replicates, experiment r13-r23
[5] = Compound 0.610352 nM, raw replicates, experiment r13-r23
[6] = Compound 1.02544 nM, raw replicates, experiment r1-r11
[7] = Compound 3.15521 nM, raw replicates, experiment r1-r11
[8] = Compound 9.76563 nM, raw replicates, experiment r13-r23
[9] = Compound 39.0625 nM, raw replicates, experiment r13-r23
[10] = Compound 156.25 nM, raw replicates, experiment r13-r23
[11] = Compound 625 nM, raw replicates, experiment r13-r23
[12] = Compound 2500 nM, raw replicates, experiment r13-r23
[13] = Compound 3155.21 nM, raw replicates, experiment r1-r11
[14] = Compound 10000 nM, raw replicates, experiment r13-r23
[15] = Compound 10002 nM, raw replicates, experiment r1-r11
[16] = Supplementary Table 2, read-out: Lanthascreen IC50 [nM] CDK2

Cn1cc(-n2cnc3c(NCc4nc5cc(Cl)c(Cl)cc5[nH]4)nc(N4CCOCC4)nc32)cn1 [SR-4835]
Lanthascreen signal, sheet CDK2 [1, 3]: 0.0127 and 0.01284 | Lanthascreen signal, sheet CDK2 ([1]; Compound 0.038147 nM, raw replicates, experiment r36-r46): 0.01329 and 0.01256 | Lanthascreen signal, sheet CDK2 ([1]; Compound 0.038147 nM, raw replicates, experiment r48-r58): 0.01292 and 0.01236 | Lanthascreen signal, sheet CDK2 [1, 4]: 0.01305 and 0.01264 | Lanthascreen signal, sheet CDK2 ([1]; Compound 0.152588 nM, raw replicates, experiment r36-r46): 0.01299 and 0.01282 | Lanthascreen signal, sheet CDK2 ([1]; Compound 0.152588 nM, raw replicates, experiment r48-r58): 0.01645 and 0.0151 | Lanthascreen signal, sheet CDK2 [1, 5]: 0.01296 and 0.01232 | Lanthascreen signal, sheet CDK2 ([1]; Compound 0.610352 nM, raw replicates, experiment r36-r46): 0.01373 and 0.01242 | Lanthascreen signal, sheet CDK2 ([1]; Compound 0.610352 nM, raw replicates, experiment r48-r58): 0.01563 and 0.01504 | Lanthascreen signal, sheet CDK2 [1, 6]: 0.01131 and 0.01009 | Lanthascreen signal, sheet CDK2 [1, 7]: 0.009228 and 0.009357 | Lanthascreen signal, sheet CDK2 ([1]; Compound 4.57247 nM, experiment r25-r34): 0.01614 | Lanthascreen signal, sheet CDK2 [1, 8]: 0.01326 and 0.01312 | Lanthascreen signal, sheet CDK2 ([1]; Compound 9.76563 nM, raw replicates, experiment r36-r46): 0.01252 and 0.01318 | Lanthascreen signal, sheet CDK2 ([1]; Compound 9.76563 nM, raw replicates, experiment r48-r58): 0.01463 and 0.01476 | Lanthascreen signal, sheet CDK2 ([1]; Compound 9.76563 nM, raw replicates, experiment r60-r70): 0.02088 and 0.02079 and 0.02078 | Lanthascreen signal, sheet CDK2 ([1]; Compound 13.7174 nM, experiment r25-r34): 0.01619 | Lanthascreen signal, sheet CDK2 [1, 9]: 0.01273 and 0.01299 | Lanthascreen signal, sheet CDK2 ([1]; Compound 39.0625 nM, raw replicates, experiment r36-r46): 0.01285 and 0.01213 | Lanthascreen signal, sheet CDK2 ([1]; Compound 39.0625 nM, raw replicates, experiment r48-r58): 0.01551 and 0.01552 | Lanthascreen signal, sheet CDK2 ([1]; Compound 39.0625 nM, raw replicates, experiment r60-r70): 0.01951 and 0.02081 and 0.02075 | Lanthascreen signal, sheet CDK2 ([1]; Compound 41.1523 nM, experiment r25-r34): 0.01684 | Lanthascreen signal, sheet CDK2 ([1]; Compound 123.457 nM, experiment r25-r34): 0.01665 | Lanthascreen signal, sheet CDK2 [1, 10]: 0.01317 and 0.01374 | Lanthascreen signal, sheet CDK2 ([1]; Compound 156.25 nM, raw replicates, experiment r36-r46): 0.01372 and 0.0133 | Lanthascreen signal, sheet CDK2 ([1]; Compound 156.25 nM, raw replicates, experiment r48-r58): 0.01549 and 0.01505 | Lanthascreen signal, sheet CDK2 ([1]; Compound 156.25 nM, raw replicates, experiment r60-r70): 0.01961 and 0.02092 and 0.0201 | Lanthascreen signal, sheet CDK2 ([1]; Compound 370.37 nM, experiment r25-r34): 0.01637 | Lanthascreen signal, sheet CDK2 [1, 11]: 0.0132 and 0.01347 | Lanthascreen signal, sheet CDK2 ([1]; Compound 625 nM, raw replicates, experiment r36-r46): 0.01352 and 0.01293 | Lanthascreen signal, sheet CDK2 ([1]; Compound 625 nM, raw replicates, experiment r48-r58): 0.01526 and 0.01348 | Lanthascreen signal, sheet CDK2 ([1]; Compound 625 nM, raw replicates, experiment r60-r70): 0.01884 and 0.01787 and 0.01937 | Lanthascreen signal, sheet CDK2 [1, 12]: 0.01229 and 0.01217 | Lanthascreen signal, sheet CDK2 ([1]; Compound 2500 nM, raw replicates, experiment r36-r46): 0.01331 and 0.01286 | Lanthascreen signal, sheet CDK2 ([1]; Compound 2500 nM, raw replicates, experiment r48-r58): 0.01476 and 0.01465 | Lanthascreen signal, sheet CDK2 ([1]; Compound 2500 nM, raw replicates, experiment r60-r70): 0.01706 and 0.01739 and 0.01756 | Lanthascreen signal, sheet CDK2 [1, 13]: 0.009677 and 0.009716 | Lanthascreen signal, sheet CDK2 ([1]; Compound 3333.33 nM, experiment r25-r34): 0.01493 | Lanthascreen signal, sheet CDK2 ([1]; Compound 10000 nM, experiment r25-r34): 0.01253 | Lanthascreen signal, sheet CDK2 [1, 14]: 0.01083 and 0.01088 | Lanthascreen signal, sheet CDK2 ([1]; Compound 10000 nM, raw replicates, experiment r36-r46): 0.01118 and 0.01139 | Lanthascreen signal, sheet CDK2 ([1]; Compound 10000 nM, raw replicates, experiment r48-r58): 0.01493 and 0.01454 | Lanthascreen signal, sheet CDK2 ([1]; Compound 10000 nM, raw replicates, experiment r60-r70): 0.01597 and 0.01433 and 0.01526 | Lanthascreen signal, sheet CDK2 [1, 15]: 0.009692 and 0.009444 | IC50 ([1]; Lanthascreen, average, Extended Data Fig. 8, read-out: CDK2 IC50): > 10000 nM | IC50 [1, 16]: > 10000 nM | CDK12 peptide count [2]: 613.534 and 654.471 | CDK12 peptide count (DMSO-normalised) [2]: 0.6817 and 0.676

Cc1cccc(Nc2nc(CC(=O)Nc3ncc(C)s3)cs2)n1 [HQ461]
Lanthascreen signal, sheet CDK2 [1, 3]: 0.01269 and 0.01279 | Lanthascreen signal, sheet CDK2 [1, 4]: 0.01374 and 0.01273 | Lanthascreen signal, sheet CDK2 [1, 5]: 0.01372 and 0.01331 | Lanthascreen signal, sheet CDK2 [1, 6]: 0.009631 and 0.01041 | Lanthascreen signal, sheet CDK2 [1, 7]: 0.01056 and 0.008974 | Lanthascreen signal, sheet CDK2 ([1]; Compound 9.46563 nM, raw replicates, experiment r1-r11): 0.009472 and 0.0097 | Lanthascreen signal, sheet CDK2 [1, 8]: 0.01395 and 0.01369 | Lanthascreen signal, sheet CDK2 ([1]; Compound 31.5521 nM, raw replicates, experiment r1-r11): 0.0114 and 0.01012 | Lanthascreen signal, sheet CDK2 [1, 9]: 0.01257 and 0.0126 | Lanthascreen signal, sheet CDK2 ([1]; Compound 99.3891 nM, raw replicates, experiment r1-r11): 0.01033 and 0.009406 | Lanthascreen signal, sheet CDK2 [1, 10]: 0.01318 and 0.01113 | Lanthascreen signal, sheet CDK2 ([1]; Compound 315.521 nM, raw replicates, experiment r1-r11): 0.009414 and 0.009861 | Lanthascreen signal, sheet CDK2 [1, 11]: 0.01295 and 0.0131 | Lanthascreen signal, sheet CDK2 [1, 12]: 0.01303 and 0.01312 | Lanthascreen signal, sheet CDK2 [1, 13]: 0.008384 and 0.008441 | Lanthascreen signal, sheet CDK2 [1, 14]: 0.01252 and 0.01202 | Lanthascreen signal, sheet CDK2 [1, 15]: 0.01042 and 0.01107 | IC50 ([1]; Lanthascreen, read-out: CDK2 inhibition): > 10000 nM | IC50 [1, 16]: > 10000 nM | CDK12 peptide count [2]: 703.981 and 744.171 | CDK12 peptide count (DMSO-normalised) [2]: 0.7821 and 0.7686
